In test [1] the test system is T1, hybrid protein LAC4-LACA-KpnI.
T1 construct: single-chain fusion: K. lactis LAC4 without its 297 C-terminal residues (fifth domain), replaced by 274 C-terminal residues of A. niger LACA (from pVK1.1) at KpnI site; expressed in K. lactis MW190-9B; crude extract
Kind of test: o-nitrophenol release, Lineweaver-Burk. The class given is biochemical, Kluyveromyces lactis;Aspergillus niger. Conditions: crude extract (30 μg protein); buffer Z with 1.6 mM MgSO4; ONPG 2-12 mM.

The test system is the same in test [2]. Kind of test: D-galactose release by coupled galactose dehydrogenase / NADH kit at […] nm, Lineweaver-Burk. The class given is biochemical, Kluyveromyces lactis;Aspergillus niger. The settings on record: crude extract (60 μg protein); lactose 5-160 mM.

From article PMC1764428, “Secretion and properties of a hybrid Kluyveromyces lactis-Aspergillus niger β-galactosidase” (Microbial Cell Factories, 2006) come the findings set out here.

Broadly, the Km is the substrate concentration at which the rate is half of its maximum. As for `O=[N+]([O-])c1ccccc1O[C@@H]1O[C@H](CO)[C@H](O)[C@H](O)[C@H]1O` [ONPG], the Km in test [1] turned out to be 0.8 mM. On to `OC[C@H]1O[C@@H](O[C@H]2[C@H](O)[C@@H](O)C(O)O[C@@H]2CO)[C@H](O)[C@@H](O)[C@H]1O` (some centres unmarked) [lactose], for which the Km in test [2] was determined as 8.7 mM.
